Laboratory results as given in patent publication US11370774B2, “Substituted benzofuran, benzopyrrole, benzothiophene, and structurally related complement inhibitors” (BioCryst Pharmaceuticals, Inc., priority 2018, dated 2022).

Target: Factor D (Homo sapiens (Human), UniProt P00746)
Assay: Factor D esterolytic assay (Z-Lys-SBzl substrate, DTNB, 405 nm)
Type: biochemical
Conditions: Z-Lys-SBzl 1.29 mM, pH 7.5, 10% DMSO, tested a minimum of three times, read-out: Measured Ki (IC50) Value for Compounds: IC50
Description: The IC50 value of a compound (i.e., the concentration of the compound that inhibits 50% of the enzymatic activity) was calculated according to the procedure reported in U.S. Pat. No. 6,653,340 B1, e.g., column 74 (incorporated by reference).
Specifically, the compounds were dissolved in a stock solution of DMSO at 10.0 or 100 mM. A portion of this stock solution was added to assay buffer in a final volume of 50 μL. Controls included buffer alone and enzyme solutions to which DMSO was added. Substrate was added to the reaction wells immediately or after incubation at room temperature. The reaction rates were measured spectrophotometrically by the generation of product at 405 nm for 600 sec. Background absorbance at 690 nm was measured and subtracted from the absorbance at 405 nm for each well.
The reaction rate for enzyme alone was compared to the rate of enzyme in the presence of inhibitor and the percent inhibition was calculated as shown below: Percent Inhibition=[Rate without inhibitor−Rate with inhibitor)/(Rate without inhibitor)]×100 Factor D Esterolytic Assay:
An established esterolytic assay for the measurement of Factor D activity and inhibition of Factor D activity was used (Kam, C. M.; McRae, B. J.; Harper, J. W.; Niemann, M. A.; Volanakis, J. E.; Powers, J. C. Human complement proteins D, C2, and B Active site mapping with peptide thioester substrates. J Biol. Chem. 1987, 262, 3444-3451). For this assay Z-Lys-SBzl, 1.29 mM (Kim, S.; Narayana, S. V. L; Volanakis, J. E. Mutational analysis of the substrate binding site of human complement Factor D. Biochemistry. 1994, 33, 14393-14399.) was used as the substrate for Factor D ([…]). Hydrolysis of this compound by Factor D liberated a free sulfhydryl group which is then reacted with 5,5′-dithiobis(2nitrobenzoic acid) producing an intense yellow color (Habeeb, A. F. S. A. Reaction of protein sulfhydryl groups with Ellman's Reagent. Methods in Enzymol. 1976, 25, 457-464). The assays were performed in 96 well microtiter plates and rates of hydrolysis were monitored at 405 nm on a Biotek Synergy H1 plate reader. Hydrolysis rates were reported as change in mOD/min. The assay was conducted in 100 mM HEPES, 500 mM NaCl, pH 7.5 containing 10% DMSO in a final volume of 50 μL per well.
An IC50, a compound concentration which inhibits 50% of the enzymatic activity, was calculated. Compounds in the examples were tested a minimum of three times.

Factor D, sequence (P00746 26-253): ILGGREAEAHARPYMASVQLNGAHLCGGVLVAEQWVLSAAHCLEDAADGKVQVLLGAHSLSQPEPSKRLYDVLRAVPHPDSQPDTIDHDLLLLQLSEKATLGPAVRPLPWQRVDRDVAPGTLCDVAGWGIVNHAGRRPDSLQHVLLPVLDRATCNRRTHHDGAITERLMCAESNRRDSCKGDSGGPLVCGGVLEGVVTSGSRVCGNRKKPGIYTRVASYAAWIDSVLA

Compound | IC50 [nM]
NCc1cc(-c2cc(COc3ccccc3CC(=O)O)cc3c2ccn3S(=O)(=O)C2CC2)ccn1 [Compound 232c, 2-(2-((4-(2-(aminomethyl)pyridin-4-yl)-1-(cyclopropylsulfonyl)-1H-indol-6-yl)methoxy)phenyl)acetic acid] | < 1000
NCc1cccc(-c2cc(COc3c(F)cccc3CC(=O)O)cc3ccoc23)c1F [Compound 502c, 2-(2-((7-(3-(aminomethyl)-2-fluorophenyl)benzofuran-5-yl)methoxy)-3-fluorophenyl)acetic acid] | < 1000
CN1CCC(N(C)Cc2cc3cc(COc4ccccc4CC(=O)O)cc(-c4cccc(CN)c4)c3o2)CC1 [Compound 210c, 2-(2-((7-(3-(aminomethyl)phenyl)-2-((methyl(1-methylpiperidin-4-yl)amino)methyl)benzofuran-5-yl)methoxy)phenyl)acetic acid] | < 1000
NCc1cccc(-c2cc(COc3ccccc3CC(=O)O)cc3cc(C(F)(F)F)oc23)c1F [Compound 235b, 2-(2-((7-(3-(aminomethyl)-2-fluorophenyl)-2-(trifluoromethyl)benzofuran-5-yl)methoxy)phenyl)acetic acid] | < 1000
COCc1cc2cc(COc3ccc(F)cc3CC(=O)O)cc(-c3cccc(CN)c3)c2o1 [Compound 462c, 2-(2-((7-(3-(aminomethyl)phenyl)-2-(methoxymethyl)benzofuran-5-yl)methoxy)-5-fluorophenyl)acetic acid] | < 1000
NCc1cccc(-c2cc(COc3cc(CC4CC4)ccc3CC(=O)O)cc3ccoc23)c1 [Compound 261c, 2-(2-((7-(3-(aminomethyl)phenyl)benzofuran-5-yl)methoxy)-4-(cyclopropylmethyl)phenyl)acetic acid] | < 1000
NCc1cccc(-c2cc(C(=O)Nc3ccccc3CC(=O)O)nc3ccoc23)c1 [Compound 255c, 2-(2-(7-(3-(aminomethyl)phenyl)furo[3,2-b]pyridine-5-carboxamido)phenyl)acetic acid] | 1000 to 10000
CC(=O)Nc1ccc(CC(=O)O)c(OCc2cc(-c3cccc(CN)c3)c3oc(C)cc3c2)c1 [Compound 426c, 2-(4-acetamido-2-((7-(3-(aminomethyl)phenyl)-2-methylbenzofuran-5-yl)methoxy)phenyl)acetic acid] | < 1000
NCc1cc(-c2cc(COc3cc(F)ccc3CC(=O)O)cc3ccoc23)ccn1 [Compound 365f, 2-(2-((7-(2-(aminomethyl)pyridin-4-yl)benzofuran-5-yl)methoxy)-4-fluorophenyl)acetic acid] | < 1000
NCc1cccc(-c2cc(NC(=O)[C@@H]3CCCN3CC(=O)O)cc3ccoc23)c1 [Compound 250f, (S)-2-(2-((7-(3-(aminomethyl)phenyl)benzofuran-5-yl)carbamoyl)pyrrolidin-1-yl)acetic acid] | 1000 to 10000
NCc1cc(F)cc(-c2cc(COc3ccccc3CC(=O)O)cc3[nH]ccc23)c1 [Compound 69e, 2-(2-((4-(3-(aminomethyl)-5-fluorophenyl)-1H-indol-6-yl)methoxy)phenyl)acetic acid] | < 1000
NCc1cccc(-c2cc(COc3cc(F)ccc3CC(=O)O)cc3ccoc23)c1 [Compound 260g, 2-(2-((7-(3-(aminomethyl)phenyl)benzofuran-5-yl)methoxy)-4-fluorophenyl)acetic acid] | < 1000
Cc1oc2c(-c3cccc(CN)c3)cc(COc3ccccc3CC(=O)O)cc2c1-c1ccoc1 [Compound 459h, 2-(2-((7-(3-(aminomethyl)phenyl)-3-(furan-3-yl)-2-methylbenzofuran-5-yl)methoxy)phenyl)acetic acid] | < 1000
NCc1cccc(-c2cc(NC(=O)N3CCCC3CC(=O)O)cc3ccoc23)c1 (stereo not drawn) [Compound 407d, 2-(1-((7-(3-(aminomethyl)phenyl)benzofuran-5-yl)carbamoyl)pyrrolidin-2-yl)acetic acid] | > 10000
Cc1ccc(CC(=O)O)c(OCc2cc(-c3cccc(CN)c3F)c3occ(C(F)(F)F)c3c2)c1 [Compound 349b, 2-(2-((7-(3-(aminomethyl)-2-fluorophenyl)-3-(trifluoromethyl)benzofuran-5-yl)methoxy)-4-methylphenyl)acetic acid] | < 1000
Cc1ccc(CC(=O)O)c(OCc2cc(-c3cccc(CN)c3F)c3ccn(C)c3c2)c1 [Compound 359b, 2-(2-((4-(3-(aminomethyl)-2-fluorophenyl)-1-methyl-1H-indol-6-yl)methoxy)-4-methylphenyl)acetic acid] | < 1000
NCc1nccc(-c2cc(COc3ccccc3CC(=O)O)cc3sc(Cl)cc23)c1F [Compound 338c, 2-(2-((4-(2-(aminomethyl)-3-fluoropyridin-4-yl)-2-chlorobenzo[b]thiophen-6-yl)methoxy)phenyl)acetic acid] | < 1000
COCc1cc2cc(COc3cc(NC(C)=O)ccc3CC(=O)O)cc(-c3cccc(CN)c3)c2o1 [Compound 417e, 2-(4-acetamido-2-((7-(3-(aminomethyl)phenyl)-2-(methoxymethyl)benzofuran-5-yl)methoxy)phenyl)acetic acid] | < 1000
NC(CF)c1cc(-c2cc(COc3ccccc3CC(=O)O)cc3ccoc23)ccn1 (single isomer, unassigned; (-)) [Compound 326g, (−)-2-(2-((7-(2-(1-amino-2-fluoroethyl)pyridin-4-yl)benzofuran-5-yl)methoxy)phenyl)acetic acid] | 1000 to 10000
CC(C)c1ccc(CC(=O)O)c(OCc2cc(-c3cccc(CN)c3)c3occc3c2)c1 [Compound 312b, 2-(2-((7-(3-(aminomethyl)phenyl)benzofuran-5-yl)methoxy)-4-isopropylphenyl)acetic acid] | < 1000
NCc1cc(-c2cc(COc3c(F)cccc3CC(=O)O)cc3ccoc23)ccn1 [Compound 504c, 2-(2-((7-(2-(aminomethyl)pyridin-4-yl)benzofuran-5-yl)methoxy)-3-fluorophenyl)acetic acid] | < 1000
Cc1noc2c(-c3cccc(CN)c3F)cc(COc3ccccc3CC(=O)O)cc12 [Compound 267h, 2-(2-((7-(3-(aminomethyl)-2-fluorophenyl)-3-methylbenzo[d]isoxazol-5-yl)methoxy)phenyl)acetic acid] | < 1000
NCc1cccc(-c2nc(C(=O)Nc3ccccc3CC(=O)O)nc3[nH]ccc23)c1 [Compound 3i, 2-(2-(4-(3-(aminomethyl)phenyl)-7H-pyrrolo[2,3-d]pyrimidine-2-carboxamido)phenyl)acetic acid] | < 1000
NCc1cccc(-c2cc(COc3ccc(F)cc3CC(=O)O)cc3ccoc23)c1 [Compound 205d, 2-(2-((7-(3-(aminomethyl)phenyl)benzofuran-5-yl)methoxy)-5-fluorophenyl)acetic acid] | < 1000
NCc1cc(-c2cc(COc3ccccc3CC(=O)O)cc3occc23)ccn1 [Compound 123d, 2-(2-((4-(2-(aminomethyl)pyridin-4-yl)benzofuran-6-yl)methoxy)phenyl)acetic acid] | < 1000
NCc1cccc(-c2nc(C(=O)Nc3ccccc3CC(=O)O)c3cccn3n2)c1F [Compound 34f, 2-(2-(2-(3-(aminomethyl)-2-fluorophenyl)pyrrolo[2,1-f][1,2,4]triazine-4-carboxamido)phenyl)acetic acid] | < 1000
NCc1cccc(-c2cc(COc3cc(C(N)=O)ccc3CC(=O)O)cc3ccoc23)c1F [Compound 411e, 2-(2-((7-(3-(aminomethyl)-2-fluorophenyl)benzofuran-5-yl)methoxy)-4-carbamoylphenyl)acetic acid] | < 1000
CCCc1cc2cc(COc3ccccc3CC(=O)O)cc(-c3cccc(CN)c3F)c2o1 [Compound 188b, 2-(2-((7-(3-(aminomethyl)-2-fluorophenyl)-2-propylbenzofuran-5-yl)methoxy)phenyl)acetic acid] | < 1000
NCc1cccc(-c2cc(COc3cc(C(N)=O)ccc3CC(=O)O)cc3cc(CO)oc23)c1 [Compound 424d, 2-(2-((7-(3-(aminomethyl)phenyl)-2-(hydroxymethyl)benzofuran-5-yl)methoxy)-4-carbamoylphenyl)acetic acid] | < 1000
NCc1cccc(-c2cc(COc3ccccc3CC(=O)O)c(F)c3ccoc23)c1 [Compound 136e, 2-(2-((7-(3-(aminomethyl)phenyl)-4-fluorobenzofuran-5-yl)methoxy)phenyl)acetic acid] | < 1000
